Source: US11414378B2, “Anti-fungals compounds targeting the synthesis of fungal sphingolipids” (THE RESEARCH FOUNDATION FOR THE STATE UNIVERSITY OF NEW YORK, priority 2017, dated 2022)
≈ marks a conversion by molar mass, not a printed value.

Assays:
[1] = tested on: C. neoformans cells; assay: In vitro killing activity (K100) assay; format: cell-based, Cryptococcus neoformans; details: minimum concentration that kills 100% of C. neoformans cells in 48 h; for MFC: Cryptococcus neoformans
Protocol: C. neoformans cells from a culture grown overnight were washed in PBS and resuspended in YNB buffered with HEPES at pH 7.4. The cells were counted, and 2×10^4 cells were incubated with different concentration of compounds in a final volume of 10 ml with a final concentration of 0.5% DMSO. The tubes were then incubated at 37° C. with 5% CO2 on a rotary shaker at 200 rpm. Aliquots were taken at time points and diluted, and […] were plated onto Yeast Extract-Peptone-Dextrose (YPD) plates. YPD plates were incubated in a 30° C. incubator and after 48 h, the numbers of CFU were counted and recorded.

[2] = tested on: C. neoformans; assay: In vitro susceptibility (MIC80) assay; format: cell-based; details: Cryptococcus neoformans; lowest concentration that inhibited 80% of growth; YNB pH 7.0, HEPES, 37° C., 5% CO2
Protocol: MICs was determined following the methods of the Clinical and Laboratory Standards Institutes (CLSI) with modifications. Yeast Nitrogen Base (YNB) medium (pH 7.0, 0.2% glucose) buffered with HEPES was used for MIC studies. […] The compound was serially diluted from 16 to 0.03 μg/ml, in a 96-well plate. The inoculum was prepared as described in the CLSI protocol M27A3 guidelines. The plates were incubated at 37° C. with 5% CO2 for 24 to 72 h and the optical density was measure at 450 nm. The MICs was determined as the lowest concentration of the compound that inhibited 80% of growth compared to the control.

| Compound | MFC [1] [µg/mL] | MIC80 [2] [µg/mL] | K100* (μg/mL) [1] |
| --- | --- | --- | --- |
| O=C(N/N=C/c1cc(OC(F)(F)F)ccc1O)c1ccc(Br)cc1 [Compound A1, 4-Bromo-N′-(2-hydroxy-5-trifluoromethoxybenzylidene)benzohydrazide] | > 1 | 0.25 (≈ 0.62 µM) |  |
| O=C(N/N=C/c1cc(F)ccc1O)c1ccc(Br)cc1 [Compound A2, 4-Bromo-N′-(5-fluoro-2-hydroxybenzylidene)benzohydrazide] | > 4 | 1 (≈ 2.97 µM) |  |
| O=C(N/N=C/c1cc(OC(F)(F)F)ccc1O)c1ccc(Br)cc1Br [Compound A3, 2,4-Dibromo-N′-(2-hydroxy-5-trifluoromethoxybenzylidene)benzohydrazide] | 2 (≈ 4.15 µM) | 0.25 (≈ 0.519 µM) |  |
| O=C(N/N=C/c1cc(F)ccc1O)c1ccc(Br)cc1Br [Compound A4, 2,4-Dibromo-N′-(5-fluoro-2-hydroxybenzylidene)benzohydrazide] | > 4 | 1 (≈ 2.4 µM) |  |
| O=C(N/N=C/c1cc(Br)ccc1O)c1cccc(OC(F)F)c1 [Compound A5, 3-Difluoromethoxy-N′-(5-bromo-2-hydroxybenzylidene)benzohydrazide] |  | 0.12 (≈ 0.312 µM) | Fungistatic |
| O=C(N/N=C/c1cc(Br)cc(Br)c1O)c1cccc(OC(F)F)c1 [Compound A6, 3-Difluoromethoxy-N′-(3,5-dibromo-2-hydroxybenzylidene)benzohydrazide] | 0.5 (≈ 1.08 µM) | 0.12 (≈ 0.259 µM) |  |
| O=C(N/N=C/c1cc(Br)ccc1O)c1ccc(OC(F)(F)F)cc1 [Compound A7, 4-Trifluoromethoxy-N′-(5-bromo-2-hydroxybenzylidene)benzohydrazide] | > 4 | 0.5 (≈ 1.24 µM) |  |
| O=C(N/N=C/c1cc(Br)ccc1O)c1ccc(C(F)(F)F)cc1F [Compound A8, 2-Fluoro-4-trifluoromethyl-N′-(5-bromo-2-hydroxybenzylidene)benzohydrazide] | 1 (≈ 2.47 µM) | 0.5 (≈ 1.23 µM) |  |
| O=C(N/N=C/c1cc(Br)cc(Br)c1O)c1ccc(C(F)(F)F)cc1F [Compound A9, 2-Fluoro-4-trifluoromethyl-N′-(3,5-dibromo-2-hydroxybenzylidene)benzohydrazide] | 0.5 (≈ 1.03 µM) | 0.12 (≈ 0.248 µM) |  |
| O=C(N/N=C/c1cc(Br)cc(Br)c1O)c1cnc2ccccc2c1 [Compound A10, N′-(3,5-dibromo-2-hydroxybenzylidene) quinolinylhydrazide] |  | 0.25 (≈ 0.557 µM) | Fungistatic |
| N#Cc1ccc(C(=O)N/N=C/c2cc(Br)cc(Br)c2O)cc1 [Compound A11, 4-Cyano-N′-(3,5-dibromo-2-hydroxybenzylidene)benzohydrazide] | > 1 | 0.06 (≈ 0.142 µM) |  |
| O=C(N/N=C/c1cc(Br)ccc1O)c1ccc(OC(F)(F)F)cc1F [Compound A12, 2-Fluoro-4-trifluoromethoxy-N′-(5-bromo-2-hydroxybenzylidene)benzohydrazide] | 0.5 (≈ 1.19 µM) | 0.5 (≈ 1.19 µM) |  |
| O=C(N/N=C/c1cc(Br)cc(Br)c1O)c1ccc(OC(F)(F)F)cc1F [Compound A13, 2-Fluoro-4-trifluoromethoxy-N′-(3,5-dibromo-2-hydroxybenzylidene)-benzohydrazide] | 0.5 (≈ 1 µM) | 0.06 (≈ 0.12 µM) |  |
| O=C(N/N=C/c1cc(C(F)(F)F)ccc1O)c1cccc(Br)c1 [Compound A14, 3-Bromo-N′-(2-hydroxy-5-trifluoromethylbenzylidene)benzohydrazide] | > 2 | 0.5 (≈ 1.29 µM) |  |
| CN(C)c1ccc(C(=O)N/N=C/c2ccc(Br)cc2O)cc1 [Compound A16] | > 1 | 0.25 (≈ 0.69 µM) |  |
| Cc1ccc(O)c(/C=N/NC(=O)c2cc(Br)cc(Br)c2O)c1 [Compound A17, 3,5-Dibromo-2-hydroxy-N′-(5-methyl-2-hydroxyphenylmethylidene)benzohydrazide] | 0.25 (≈ 0.584 µM) | 0.25 (≈ 0.584 µM) |  |
| O=C(N/N=C/c1ccc(Br)cc1O)c1cc(Br)cc(Br)c1O [Compound A18, 3,5-Dibromo-2-hydroxy-N′-(4-bromo-2-hydroxybenzylidene)benzohydrazide] | 0.25 (≈ 0.507 µM) | 0.25 (≈ 0.507 µM) |  |
| O=C(N/N=C/c1ccc(Br)cc1O)c1ccc(OC(F)F)cc1 [Compound A21, 4-Difluoromethoxy-N′-(4-bromo-2-hydroxybenzylidene)benzohydrazide] |  | 0.12 (≈ 0.312 µM) |  |
| O=C(N/N=C/c1cc(Br)ccc1O)c1ccc(OC(F)F)cc1 [Compound A22, 4-Difluoromethoxy-N′-(5-bromo-2-hydroxybenzylidene)benzohydrazide] |  | 0.25 (≈ 0.649 µM) |  |
| O=C(N/N=C/c1cc(Br)cc(Br)c1O)c1ccc(OC(F)F)cc1 [Compound A23, 4-Difluoromethoxy-N′-(3,5-dibromo-2-hydroxybenzylidene)benzohydrazide] |  | 0.12 (≈ 0.259 µM) |  |

| Compound | MFC [1] [µg/mL] | MIC80 [2] [µg/mL] | K100* (μg/mL) [1] |
| --- | --- | --- | --- |
| O=C(N/N=C/c1cccc(Cl)c1O)c1cccc(C(F)(F)F)c1 [Compound A24, 3-Trifluoromethyl-N′-(3-chloro-2-hydroxybenzylidene)benzohydrazide] | 4 (≈ 11.7 µM) | 1 (≈ 2.92 µM) |  |
| O=C(N/N=C/c1cccc(Br)c1O)c1cccc(C(F)(F)F)c1 [Compound A25, 3-Trifluoromethyl-N′-(3-bromo-2-hydroxybenzylidene)benzohydrazide] | 2 (≈ 5.17 µM) | 1 (≈ 2.58 µM) |  |
| O=C(N/N=C/c1ccc(Br)cc1O)c1cccc(C(F)(F)F)c1 [Compound A26, 3-Trifluoromethyl-N′-(4-bromo-2-hydroxybenzylidene)benzohydrazide] | 1 (≈ 2.58 µM) | 0.5 (≈ 1.29 µM) |  |
| O=C(N/N=C/c1cccc(Br)c1O)c1cccc(F)c1 [Compound A27, 3-Fluoro-N′-(3-bromo-2-hydroxybenzylidene)benzohydrazide] | 2 (≈ 5.93 µM) | 1 (≈ 2.97 µM) |  |
| O=C(N/N=C/c1ccc(Br)cc1O)c1cccc(F)c1 [Compound A28, 3-Fluoro-N′-(4-bromo-2-hydroxybenzylidene)benzohydrazide] | > 2 | 0.5 (≈ 1.48 µM) |  |
| O=C(N/N=C/c1cc(Br)cc(Br)c1O)c1ccc(Br)c(Br)c1 [Compound A29, 3,4-Dibromo-N′-(3,5-dibromo-2-hydroxybenzylidene)benzohydrazide] | > 0.5 | 0.06 (≈ 0.108 µM) |  |
| O=C(N/N=C/c1cc(Cl)cc(Cl)c1O)c1ccc(Br)c(Br)c1 [Compound A30, 3,4-Dibromo-N′-(3,5-dichloro-2-hydroxybenzylidene)benzohydrazide] | > 0.025 | < 0.03 |  |
| O=C(N/N=C/c1cc(Cl)ccc1O)c1ccc(Br)c(Br)c1 [Compound A31, 3,4-Dibromo-N′-(5-chloro-2-hydroxybenzylidene)benzohydrazide] | > 0.5 | 0.06 (≈ 0.139 µM) |  |
| O=C(N/N=C/c1c(O)ccc2ccccc12)c1ccc(Br)c(Br)c1 [Compound A32, 3,4-Dibromo-N′-(2-hydroxy-1-naphthylidene)benzohydrazide] | > 1 | 0.12 (≈ 0.268 µM) |  |
| O=C(N/N=C/c1cc(Br)ccc1O)c1ccc(Br)c(Br)c1 [Compound A33, 3,4-Dibromo-N′-(5-bromo-2-hydroxybenzylidene)benzohydrazide] | 2 (≈ 4.19 µM) | 0.25 (≈ 0.524 µM) |  |
| Cc1ccc(O)c(/C=N/NC(=O)c2ccc(Br)c(Br)c2)c1 [Compound A34, 3,4-Dibromo-N′-(2-hydroxy-5-methylbenzylidene)benzohydrazide] | > 1 | 0.12 (≈ 0.291 µM) |  |
| O=C(N/N=C/c1ccc(Br)cc1O)c1ccc(Br)c(Br)c1 [Compound A35, 3,4-Dibromo-N′-(4-bromo-2-hydroxybenzylidene)benzohydrazide] | > 5 | 0.06 (≈ 0.126 µM) |  |
| O=C(N/N=C/c1cc(Br)ccc1O)c1cc(Br)cc(Br)c1 [Compound A36, 3,5-Dibromo-N′-(5-bromo-2-hydroxybenzylidene)benzohydrazide] | > 5 | 0.06 (≈ 0.126 µM) |  |
| O=C(N/N=C/c1c(O)ccc2ccccc12)c1cc(Br)cc(Br)c1 [Compound A37, 3,5-Dibromo-N′-(2-hydroxy-1-naphthylidene)benzohydrazide] | 0.5 (≈ 1.12 µM) | 0.25 (≈ 0.558 µM) |  |
| O=C(N/N=C/c1cc(Cl)cc(Cl)c1O)c1cc(Br)cc(Br)c1 [Compound A38, 3,5-Dibromo-N′-(3,5-dichloro-2-hydroxybenzylidene)benzohydrazide] | 0.5 (≈ 1.07 µM) | 0.5 (≈ 1.07 µM) |  |
| O=C(N/N=C/c1ccc(Br)cc1O)c1cc(Br)cc(Br)c1 [Compound A39, 3,5-Dibromo-N′-(4-bromo-2-hydroxybenzylidene)benzohydrazide] | 1 (≈ 2.1 µM) | 1 (≈ 2.1 µM) |  |
| O=C(N/N=C/c1cc(Cl)ccc1O)c1cc(Br)cc(Br)c1 [Compound A40, 3,5-Dibromo-N′-(5-chloro-2-hydroxybenzylidene)benzohydrazide] | 1 (≈ 2.31 µM) | 0.12 (≈ 0.277 µM) |  |
| Cc1ccc(O)c(/C=N/NC(=O)c2cc(Br)cc(Br)c2)c1 [Compound A41, 3,5-Dibromo-N′-(2-hydroxy-5-methylbenzylidene)benzohydrazide] | 1 (≈ 2.43 µM) | 0.5 (≈ 1.21 µM) |  |
| O=C(N/N=C/c1cc(Br)cc(Br)c1O)c1cccc(Br)c1Br [Compound A42, 2,3-Dibromo-N′-(3,5-dibromo-2-hydroxybenzylidene)benzohydrazide] | 0.5 (≈ 0.9 µM) | 0.5 (≈ 0.9 µM) |  |
| O=C(N/N=C/c1cc(Cl)cc(Cl)c1O)c1cccc(Br)c1Br [Compound A43, 2,3-Dibromo-N′-(3,5-dichloro-2-hydroxybenzylidene)benzohydrazide] | 1 (≈ 2.14 µM) | 1 (≈ 2.14 µM) |  |
